Data: the supplement of paper PMC8671470

Columns and labels:
Conditions in all cases: 72 h
HL-60 [1] = test: area under dose-response curve (viability, 1 nM-10 uM) (fraction (0-1)); higher = more sensitive
How it was run: (§1)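 Four-parameter log-logistic fits in drc and PharmacoGx supplied area under the curve where it is given. Underlying viability came from CellTiter-Glo, normalised to DMSO and proteasome-inhibitor wells, with the proteasome inhibitor at 10 μM. HL-60 cells in RPMI 1640 plus 10% FBS had been rescreened against the full library at five tenfold concentrations of 1–10,000 nM, in duplicate on 384-well plates, with DMSO or 100 nM of one of three metabolic inhibitors, for 72 h at 37 °C, 5% CO2.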

HEL [2] = test system: HEL
How it was run: (§2)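 The IC50 was derived from log-logistic dose–response fitting. Each of fifteen myeloid leukaemia cell lines, seeded in RPMI 1640 within its linear growth range, was exposed in 384-well plates to five tenfold doses (1 to 10,000 nM) in duplicate for 72 h at 37 °C and 5% CO2. Luminescent ATP viability readings were normalised to vehicle and to a positive control at 10 µM before four-parameter curve fitting.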

NOMO-1 [3] = test system: NOMO-1
How it was run: as §2

BV-173 [4] = test system: BV-173
How it was run: as §2

MOLM-13 = test system: MOLM-13
How it was run: as §2

KG-1 = test system: KG-1
How it was run: as §2

THP-1 = test system: THP-1
How it was run: as §2

KCL-22 [5] = test system: KCL-22
How it was run: as §2

MV4-11 = test system: MV4-11
How it was run: as §2

HL-60 [6] = test system: HL-60
How it was run: as §2

KU-812 [7] = test system: KU-812
How it was run: as §2

Mono-Mac-6 [8] = test system: Mono-Mac-6
How it was run: as §2

ML-2 [9] = test system: ML-2
How it was run: as §2

LAMA-84 [10] = test system: LAMA-84
How it was run: as §2

K-562 [11] = test system: K-562
How it was run: as §2

SHI-1 [12] = test system: SHI-1
How it was run: as §2

HL-60 [13] = test: cell viability (% survival relative to DMSO control); higher = less cytotoxic
How it was run: as §1

HEL [14] = test: cell viability (% survival relative to DMSO control, bortezomib = 0%); higher = less cytotoxic
How it was run: (§3)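 Reported values are percent survival from duplicate wells, averaged. Fifteen myeloid leukaemia cell lines were treated in 384-well plates with compounds at 1, 10, 100, 1000 or 10000 nM for 72 h at 37 °C in 5% CO2. Signals from CellTiter-Glo luminescence were scaled with vehicle as 100% and a 10 µM positive control as 0%.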

NOMO-1 [15] = test: as above
How it was run: as §3

BV-173 [16] = test: as above
How it was run: as §3

KCL-22 [17] = test: as above
How it was run: as §3

HL-60 [18] = test: as above
How it was run: as §3

KU-812 [19] = test: as above
How it was run: as §3

Mono-Mac-6 [20] = test: as above
How it was run: as §3

ML-2 [21] = test: as above
How it was run: as §3

LAMA-84 [22] = test: as above
How it was run: as §3

K-562 [23] = test: as above
How it was run: as §3

SHI-1 [24] = test: as above
How it was run: as §3

C=C(C)[C@H]1Cc2c(ccc3c2O[C@@H]2COc4cc(OC)c(OC)cc4[C@@H]2C3=O)O1 [Rotenone]
Conditions	area under dose-response curve, co-treatment: AZD3965 100 nM	area under dose-response curve, co-treatment: DMSO vehicle	area under dose-response curve, co-treatment: GSK2194069 100 nM	area under dose-response curve, co-treatment: pictilisib 100 nM	cell viability, 1 nM [%]	cell viability, 10 nM [%]	cell viability, 100 nM [%]	cell viability, 1000 nM [%]	cell viability, 10000 nM [%]
BV-173 [16]	–	–	–	–	106	77	49.9	1.45	0.515
HEL [14]	–	–	–	–	99.4	92	63.2	12.3	1.89
HL-60 [1]	0.137	0.319	0.289	0.256	–	–	–	–	–
HL-60 [18]	–	–	–	–	97.1	79.3	82.1	0.525	3.28
K-562 [23]	–	–	–	–	88.9	66.4	30.6	3.39	2.57
KCL-22 [17]	–	–	–	–	97.8	103	81.7	0.654	1.21
KU-812 [19]	–	–	–	–	87.9	65.9	16.6	3.5	2.89
LAMA-84 [22]	–	–	–	–	101	87.5	51.4	18.3	14.6
ML-2 [21]	–	–	–	–	94.4	94.1	97.1	1.51	3.18
Mono-Mac-6 [20]	–	–	–	–	94.1	96.4	76.7	9.03	2.24
NOMO-1 [15]	–	–	–	–	93.9	109	92	39.8	8.45
SHI-1 [24]	–	–	–	–	96.3	93.4	73.7	4.23	5.24

Conditions	IC50 (cell viability) [nM]
BV-173 [4]	80
HEL [2]	168
HL-60 [6]	269
K-562 [11]	40.7
KCL-22 [5]	206
KG-1	68.4
KU-812 [7]	23.2
LAMA-84 [10]	74.4
ML-2 [9]	322
MOLM-13	176
MV4-11	156
Mono-Mac-6 [8]	225
NOMO-1 [3]	644
SHI-1 [12]	179
THP-1	268

cell viability [%], HL-60 [13]
Conditions	0.001 µM	0.01 µM	0.1 µM	1 µM	10 µM
co-treatment: AZD3965 100 nM	96.5	99.7	83	83.4	7.8
co-treatment: DMSO vehicle	97.7	103	86.415	30.8	10.4
co-treatment: GSK2194069 100 nM	86.2	91.1	78.3	35.8	12.9
co-treatment: pictilisib 100 nM	83.6	74.5	83.9	34.5	9.82

Oc1ccc(Nc2nc(-c3ccc(Cl)cc3)cs2)cc1 [SKI II]
Conditions	area under dose-response curve, co-treatment: AZD3965 100 nM	area under dose-response curve, co-treatment: DMSO vehicle	area under dose-response curve, co-treatment: GSK2194069 100 nM	area under dose-response curve, co-treatment: pictilisib 100 nM	cell viability, 1 nM [%]	cell viability, 10 nM [%]	cell viability, 100 nM [%]	cell viability, 1000 nM [%]	cell viability, 10000 nM [%]
BV-173 [16]	–	–	–	–	104	98.3	96.7	70.5	0.732
HEL [14]	–	–	–	–	102	109	111	95.5	5.26
HL-60 [1]	0.0929	0.0805	0.0628	0.151	–	–	–	–	–
HL-60 [18]	–	–	–	–	88.9	110	97.7	77.7	11.2
K-562 [23]	–	–	–	–	99.5	107	107	75.2	36.8
KCL-22 [17]	–	–	–	–	94.5	107	109	92.1	25.7
KU-812 [19]	–	–	–	–	95.5	101	106	90.8	20.6
LAMA-84 [22]	–	–	–	–	105	99.9	96.1	96.4	34.2
ML-2 [21]	–	–	–	–	93.8	97.2	99.3	89.7	44
Mono-Mac-6 [20]	–	–	–	–	99.2	97.8	100	93.5	14.3
NOMO-1 [15]	–	–	–	–	97.3	104	104	99.3	66.1
SHI-1 [24]	–	–	–	–	94.9	97.8	99.7	96	53.3

Conditions	IC50 (cell viability) [nM]
BV-173 [4]	1540
HEL [2]	3220
HL-60 [6]	2260
K-562 [11]	2510
KCL-22 [5]	3070
KG-1	3930
KU-812 [7]	2900
LAMA-84 [10]	6790
ML-2 [9]	5580
MOLM-13	8970
MV4-11	3200
Mono-Mac-6 [8]	4120
NOMO-1 [3]	> 10000
SHI-1 [12]	> 10000
THP-1	2480

cell viability [%], HL-60 [13]
Conditions	0.001 µM	0.01 µM	0.1 µM	1 µM	10 µM
co-treatment: AZD3965 100 nM	101.4	103	104	104	15.7
co-treatment: DMSO vehicle	102	105	97.6	100	22.1
co-treatment: GSK2194069 100 nM	99	94.2	99.8	101	30.7
co-treatment: pictilisib 100 nM	96.5	102	101	88	3.95
